# Source: publication PMC9963121, “Development of Combretastatin A-4 Analogues as Potential Anticancer Agents with Improved Aqueous Solubility” (Molecules, 2023)
# Experiments:
# [1] = tested on: HCT-116 colorectal cancer cell; test: MTT cell growth inhibition assay, HCT-116 colorectal cancer cells; format: cell-based, human; conditions: for IC50: Homo sapiens, HCT-116, MTT, mean ± SD of three experiments
# From the text: (§1) Initially, we designed and synthesised seven compounds—9a and 12a1–12a6—and evaluated the anticancer activity and aqueous solubility. We evaluated the cytotoxic effects of these stilbene nitrile analogues against a panel of four human cancer cell lines (HCT-116, BEL-7402, MCF-7 and AGS) and two human non-cancerous normal cell lines (L-02 and MCF-10A), using CA-4 as a control. The compounds were screened for aqueous solubility in 0.01 M PBS using a high throughput UV method. […] It is possible that the size of the nitrogen heterocycle had little effect on the activity of these compounds. […] The aqueous solubility of all the compounds 12a1–12a6 was higher than that of 9a, particularly that of 12a1 and 12a2 containing piperazine rings. […] Of the six compounds with improved aqueous solubility, 12a1 had the best activity.
# (§2) All human cell lines were used in this study. AGS gastric cancer cell, BEL-7402 liver cancer cell, HCT-116 colorectal cancer cell, L-02 normal liver cell, MCF-7 breast cancer cell, and MCF-10A normal breast cell were initially purchased from American Type Culture Collection (ATCC, Manassas, VA, USA). RPMI-1640 media, DMEM and FBS, were provided by Gibco Company. The cells were maintained in DMEM or RPMI-1640, supplemented with 10% FBS, 100 IU/mL penicillin and […] streptomycin, and at 37 °C in a humidified atmosphere containing 5% CO2.
# (§3) The experiment was carried out according to the method of reference.
# L-02 normal liver cell = test: MTT cell growth inhibition assay, L-02 normal liver cells; format: cell-based; conditions: Homo sapiens, mean ± SD of three experiments
# From the text: as §1, §2, §3
# [2] = Aqueous solubility in 0.01 M PBS, high throughput UV method; format: physicochemical; conditions: for Water solubility (in words): Figure 1; for solubility thermodynamic at 1.5 h: aqueous phosphate buffer, aqueous buffer, sodium phosphate buffer 0.01 M, pH 7.4, 22 ± 2 °C, mean ± SD
# From the text: as §1
# The aqueous solubility was determined as a previously reported procedure. Put simply, a certain amount of powdered compound was placed in a 2 mL centrifuge tube and mixed with an appropriate volume of aqueous phosphate buffer (10 mM, pH 7.4) to make the whole system supersaturated. The mixtures were sonicated (KQ5200DE numerical control ultrasonic cleaner, Kunshan Ultrasonic Instrument Co., Ltd., SuZhou, China) for 20 min. After sonication, the mixture was allowed to equilibrate at RT (22 ± 2 °C) for 1.5 h with vortex shaking (1200 rpm). Then centrifuged at 3000 rpm for 15 min (1-14k, sigma, Darmstadt, Germany), the supernatant was filtered with a 0.22 µM filter membrane. And then, take 150 µL of filtrate and add it to 96-well UV plate with triplicate. Draw 150 μL of blank solution was added into plate as blank control. The 96-well UV plate prepared above was read on a Synergy HTX Multifunctional Microplate Reader (BioTek, Vermont, USA) at 294 nm. The absorbance of the sample was corrected according to the UV response of the sample and blank solution, and the corrected UV response values were used for solubility calculations by bringing into the standard curve of the compound. […]
# 1.5. Solubility Assessment
# The aqueous solubility was determined as previously reported using the high throughput solubility screens procedure published by Bruno Bard et al [9. 10]. Put simply, a certain amount of powdered compound was placed in a 2 ml centrifuge tube and mixed with an appropriate volume of aqueous phosphate buffer (0.01 M, pH 7.4) to make the whole system supersaturated. The mixtures were sonicated (KQ5200DE numerical control ultrasonic cleaner, Kunshan Ultrasonic Instrument Co., Ltd., China) for 20 min. After sonication, the mixture was allowed to equilibrate at room temperature (22 ± 2°C) for 1.5 h with vortex shaking (1200 rpm). Then the centrifuge tube was put into the centrifuge (1-14k, sigma, Germany), centrifuged with 3000 rpm for 15 minutes, 0.22 µM filter membrane filtration supernatant, then take 150 µl filtrate and add it to 96-well UV plate, with three well for each compound. Draw 150 μL blank solution were added into 96 well-plate as blank control. The 96-well UV […]
# plate prepared above was read on a SynergyHTX Multifunctional microplate reader (BioTek, USA) at 338 nm (compounds 12a-12d and 15-20) or 370 nm (compounds 9a-d). The absorbance of the sample was corrected according to the UV response of the sample and blank solution, and the corrected UV responses value were used for solubility calculations by bring into the standard curve of the compound. […]
# [3] = tested on: BEL-7402 liver cancer cell; test: MTT cell growth inhibition assay, BEL-7402 liver cancer cells; format: cell-based; conditions: Homo sapiens, mean ± SD of three experiments, read-out: IC50 BEL-7402 Hepatoma Cells
# From the text: as §1, §2, §3
# AGS gastric cancer cell = test: MTT cell growth inhibition assay, AGS gastric cancer cells; format: cell-based; conditions: Homo sapiens, mean ± SD of three experiments
# From the text: as §1, §2, §3
# [4] = tested on: MCF-10A normal breast cell; test: MTT cell growth inhibition assay, MCF-10A normal breast cells; format: cell-based; conditions: Homo sapiens, mean ± SD of three experiments, read-out: IC50 MCF-10A Normal Breast Epithelial Cells
# From the text: as §1, §2, §3
# [5] = Compound stability in rat plasma, HPLC; format: in vitro ADME; conditions: 37 °C
# Experimental: Blood was collected from SD rats (200–250 g, male and female, Animal Experimental Center of Yanbian University) into heparin tubes, and supernatant plasma was collected after centrifugation.
# A certain amount of 9a and 12a1 were accurately weighed and mixed with rat plasma. After incubation at 37 ℃ for 0, 6, 12, 24 and 36 h, the plasma samples were treated with methanol and analyzed by HPLC to determine their stability in plasma.
# A HITACHI Primaide HPLC liquid chromatography system was equipped and used for all analyses. Chromatographic separation was performed on a Welch Ultimate XB-C18 column (3.9 mm × 150 mm, 5 μm; Welch, China). The analytes were eluted using a gradient method with a flow rate of 1 mL/min. Mobile phase A was Ultra pure water, and mobile phase B was methanol according to the following gradient: (1) The gradient elution conditions of 9a: 0 to 8 min, 55% to 67% B; 8.1 to 15 min, 67% to 90% B; 15.1 to 25 min, 55% B. (2) The gradient elution conditions of 12a1: 0 to 9 min, 55% to 65% B; 9.1 to 12 min, 65% to 75% B; 12.1 to 15 min, 75% to 85% B; 15.1 to 20 min, 90% B; 20.1 to 30 min, 55% B. The injection volume was 3 μL. The column temperature was set at 40 °C. […]
# 1.6. Plasma stability assessment
# Prepare plasma:blood was collected from SD rats (200-250g, male and female, Animal Experimental Center of Yanbian University) into heparin tubes, and supernatant plasma was collected after centrifugation.
# A certain amount of 9a and 12a1 were accurately weighed and mixed with rat plasma.
# After incubation at 37℃ for 0 h, 6 h, 12 h, 24 h and 36 h, the plasma samples were treated with methanol and analyzed by HPLC to determine their stability in plasma.
# Analytical instrument and conditions:
# A HITACHI Primaide HPLC liquid chromatography system equipped was used for all analyses. Chromatographic separation was performed on a Welch Ultimate XB-C18 column (3.9 mm × 150 mm, 5 μm; Welch, China). The analytes were eluted using a gradient method with a flow rate of 1 mL/min. Mobile phase A was Ultra pure water, and mobile phase B was methanol according to the following gradient: (1). The gradient elution conditions of 9a: 0 to 8 minutes, 55% to 67% B; 8.1 to 15 minutes, 67% to 90% B; 15.1 to 25 minutes, 55% B. (2). The gradient elution conditions of […]
# MCF-7 breast cancer cell = test: MTT cell growth inhibition assay, MCF-7 breast cancer cells; format: cell-based; conditions: Homo sapiens, MCF7, mean ± SD of three experiments
# From the text: as §1, §2, §3
# [6] = parameters: method as in earlier work; conditions: cited from earlier work
# [7] = parameters: method as in PMID 12067983, PMID 12807934, PMID 14645433; conditions: clinical data, intravenous CA-4P; cited from earlier work
# [8] = Configuration (cis/trans) stability; conditions: Figure 1; cis/trans olefin configuration
# From the text: This vascular disrupting activity causes the tumor tissue vascular collapse, cutting down the oxygen and nutrient supply to tumor cells, leading to tumor cell death.
# (compound 2, Figure 1). Still, the methyl group is difficult to modify chemically. […] Lipinski proposed the theory of the “Rule of 5” in 1997 [19], which is used to evaluate the pharmacokinetic characteristics of small molecule drugs.
Aqueous solubility relative to CA-4 ([2]; ratio to CA-4),Improvement in aqueous solubility over compound 2 ([2]; ratio to compound 2),IC50 [3],"Decrease of HPLC peak area in rat plasma ([5]; within 36 h, UV 294 nm)","Plasma stability (in words) ([5]; rat plasma, 24 h)",Structure (SMILES),IC50 [1],Selectivity for HCT-116 cancer cells over L-02 normal cells ([1]; ratio of IC50 values L-02 / HCT-116),Activity against HCT-116 relative to CA-4 ([1]; ratio to CA-4),IC50 (L-02 normal liver cell),Water solubility (in words) [2],solubility thermodynamic at 1.5 h [2],IC50 (AGS gastric cancer cell),IC50 [4],IC50 (MCF-7 breast cancer cell),Rat Plasma Protein Binding Rate [6],half-life [7],Configuration stability (in words) [8]
five times lower,two-fold,140 ± 10 nM,approximately 33%,retained plasma stability over 24 h,"COc1cc(/C(C#N)=C/c2ccc(N)cc2)cc(OC)c1OC [9a, (Z)-3-(4-aminophenyl)-2-(3,4,5-trimethoxyphenyl)acrylonitrile]",20 ± 10 nM,1000 times,eight times higher,20700 ± 3390 nM,Poor water solubility,10.8 ± 0.7 µg/mL,120 ± 10 nM,> 100000 nM,4820 ± 1570 nM,,,
,,,,,"COc1ccc(/C=C\c2cc(OC)c(OC)c(OC)c2)cc1O [CA-4, Combretastatin A-4]",160 nM,,,1100 ± 30 nM,Poor water solubility,57.7 µg/mL,3420 ± 30 nM,,220 ± 90 nM,72.3 ± 6.9%,,
,,,,,"COc1ccc(/C=C\c2cc(OC)c(OC)c(OC)c2)cc1OP(=O)([O-])[O-].[Na+].[Na+] [CA-4P, reference compound]",590 ± 220 nM,,,,Good water solubility,,,,,,about 30 min,Configuration instability
